Assays:
[1] = test system: pancreatic cancer cell lines MIAPaCa-2 and PANC-1; test: Cancer cell cytotoxicity assay, range over both pancreatic lines; type: cell-based; details: potency order
Protocol: To validate the hypothesis that the designed c-kit/PDGFR tyrosine kinase inhibitors mediate GIST882 cell killing and PDGFR-mediated cell killing of pancreatic cancer cell lines (CFPAC-1, PANC-1 and MIA PaCa-2), an in vitro cytotoxicity assay was performed. The GIST882 cell line used in this study has a c-kit gain-of-function mutation (K642E). […] First the cells were cultured. GIST882 cells were provided by Dr. Jonathan A. Fletcher (Dana-Farber Cancer Institute, Boston, Mass.). PANC-1 and MIAPaCa-2 cells were provided by Dr. Daniel Von Hoff (Arizona Cancer Center, Tucson, Ariz.). […] All the cell lines were incubated in a humidified incubator at 37° C. with 5% CO2 atmosphere.
After incubation for 4 days at 37° C. in a humidified incubator, the cells were fixed with 10% Trichloroacetic acid solution (Catalog No. 490-10, Sigma). Subsequently, they were labeled with 0.04% Sulforhodamine B (S9012, Sigma) in 1% acetic acid. […] The absorbance of each well was read on a plate reader (Wallac Vector^2, PerkinElmer) at the wavelength of 570 nm. Data were expressed as the percentage of survival of control calculated from the absorbance corrected for background absorbance. The surviving percent of cells was determined by dividing the mean absorbance values of the […] by the mean absorbance values of the control and multiplying by 100.

PDGFRa = PDGFRa (Homo sapiens, UniProt P16234); test: Autophosphorylation assay with γ-32P-ATP; type: biochemical; details: FIG. 28B
Sequence of PDGFRa (P16234 24-1089): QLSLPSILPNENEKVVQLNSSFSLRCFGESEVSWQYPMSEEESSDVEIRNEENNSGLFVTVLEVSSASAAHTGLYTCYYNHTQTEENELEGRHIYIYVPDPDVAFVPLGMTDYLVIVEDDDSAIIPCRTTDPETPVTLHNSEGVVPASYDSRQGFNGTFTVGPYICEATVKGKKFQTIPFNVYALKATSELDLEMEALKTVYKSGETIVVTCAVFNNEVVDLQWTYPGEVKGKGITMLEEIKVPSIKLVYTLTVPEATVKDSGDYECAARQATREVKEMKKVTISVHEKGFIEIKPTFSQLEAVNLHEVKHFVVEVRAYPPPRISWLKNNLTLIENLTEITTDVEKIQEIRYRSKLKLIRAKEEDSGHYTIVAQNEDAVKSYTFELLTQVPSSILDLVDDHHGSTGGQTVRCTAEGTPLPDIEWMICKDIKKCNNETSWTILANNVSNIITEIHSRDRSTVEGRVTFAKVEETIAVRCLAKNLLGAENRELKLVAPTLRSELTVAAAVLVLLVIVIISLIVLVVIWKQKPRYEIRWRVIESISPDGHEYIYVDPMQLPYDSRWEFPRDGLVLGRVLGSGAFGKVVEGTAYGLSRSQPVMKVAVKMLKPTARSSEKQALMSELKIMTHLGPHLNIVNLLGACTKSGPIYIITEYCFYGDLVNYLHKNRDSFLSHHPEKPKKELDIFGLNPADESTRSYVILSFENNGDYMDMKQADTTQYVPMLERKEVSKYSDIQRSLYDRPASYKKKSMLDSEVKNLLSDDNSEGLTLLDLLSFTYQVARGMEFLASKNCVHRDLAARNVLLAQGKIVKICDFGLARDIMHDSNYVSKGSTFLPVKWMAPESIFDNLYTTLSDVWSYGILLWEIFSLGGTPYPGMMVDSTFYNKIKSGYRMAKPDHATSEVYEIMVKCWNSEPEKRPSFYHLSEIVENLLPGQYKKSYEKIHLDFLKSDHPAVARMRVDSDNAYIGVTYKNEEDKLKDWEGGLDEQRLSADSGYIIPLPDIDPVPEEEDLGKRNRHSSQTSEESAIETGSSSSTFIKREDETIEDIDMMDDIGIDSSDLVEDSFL
Protocol: (§1) Enzymes were incubated with the appropriate concentration of inhibitor and radiolabeled γ-^32P-ATP. After 30 minutes, the reaction mixtures were electrophoresed on an acrylamide gel and autophosphorylation, quantitated by the amount of radioactivity incorporated into the enzyme, was assayed.

c-Kit = c-Kit (Homo sapiens, UniProt P10721); test: Autophosphorylation assay with γ-32P-ATP; type: biochemical; details: FIG. 28A
Sequence of c-Kit (P10721 26-976): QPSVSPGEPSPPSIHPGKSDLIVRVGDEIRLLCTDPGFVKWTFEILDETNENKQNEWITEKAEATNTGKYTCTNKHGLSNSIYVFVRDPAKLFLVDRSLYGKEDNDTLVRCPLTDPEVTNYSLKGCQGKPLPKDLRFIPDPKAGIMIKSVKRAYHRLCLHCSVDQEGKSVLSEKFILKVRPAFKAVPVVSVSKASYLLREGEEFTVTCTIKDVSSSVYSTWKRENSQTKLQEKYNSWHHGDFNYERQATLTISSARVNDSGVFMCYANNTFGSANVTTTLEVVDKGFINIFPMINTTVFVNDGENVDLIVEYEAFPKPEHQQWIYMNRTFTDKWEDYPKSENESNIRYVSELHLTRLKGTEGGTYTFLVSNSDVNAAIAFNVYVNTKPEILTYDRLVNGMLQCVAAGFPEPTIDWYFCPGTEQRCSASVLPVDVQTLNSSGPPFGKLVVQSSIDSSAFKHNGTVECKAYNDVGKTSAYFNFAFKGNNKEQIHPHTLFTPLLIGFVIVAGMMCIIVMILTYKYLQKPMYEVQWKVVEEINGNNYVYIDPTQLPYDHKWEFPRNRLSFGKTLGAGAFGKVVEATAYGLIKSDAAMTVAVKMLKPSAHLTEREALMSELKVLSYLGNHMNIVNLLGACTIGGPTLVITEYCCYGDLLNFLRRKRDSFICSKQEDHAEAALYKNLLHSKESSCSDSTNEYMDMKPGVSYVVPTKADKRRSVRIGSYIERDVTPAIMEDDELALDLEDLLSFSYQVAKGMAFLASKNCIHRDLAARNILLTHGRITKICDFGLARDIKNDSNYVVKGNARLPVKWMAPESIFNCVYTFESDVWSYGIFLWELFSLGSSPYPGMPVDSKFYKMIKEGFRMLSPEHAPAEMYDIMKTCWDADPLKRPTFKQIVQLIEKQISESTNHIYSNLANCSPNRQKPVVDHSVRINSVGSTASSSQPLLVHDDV
Protocol: as §1

mutant forms of PDGFR = test: Activity against mutant PDGFR (stated); type: biochemical
[2] = test system: SF-767 glioblastoma multiformes cells; test: MTS cell death assay; type: cell-based
Protocol: To evaluate the ability of MP470 to enhance clinical therapy we used MP470 in combination with ionizing radiation on culture cancer cells. SF-767 glioblastoma multiformes cells were treated with 1 μM MP470, 800c Gy IR, or a combination of both.

[3] = test system: MiaPaCa-2 pancreatic cancer cells; test: Apoptosis assay (Annexin V or TUNEL); type: cell-based
Protocol: (§2) Induction of apoptosis in cancer cells is a common mechanism of action for anti-cancer agents. To determine the role of MP470 in apoptosis, tumor cells were incubated with either compound and analyzed for apoptosis using Annexin V or TUNEL assays. […] In MiaPaCa-2 cells, MP470 at […] induced 81.4% apoptosis, while at 1 μM it induced 71% apoptosis. In Panc1 cells, MP470 at 10 μM induced over a 3-fold increase in apoptotic cells compared with non-treated cells.

[4] = test system: Panc-1 pancreatic cancer cells; test: Apoptosis assay (Annexin V or TUNEL); type: cell-based; details: Panc1, 10 μM
Protocol: as §2

PDGFRα(D842V)(h) = PDGFRα(D842V)(h) (Homo sapiens, UniProt P16234, D842V); test: Kinase profile screen; type: biochemical; details: 1 uM
Sequence of PDGFRα(D842V)(h) (P16234 24-1089 D842V): as the sequence (P16234 24-1089) above, with D819V counted along it
Protocol: In order to determine the specificity and potential alternative targets for MP470, kinase profile screen were performed utilizing the KinaseProfiler™ Screen (Upstate Corp) and Select Screen™ kinase profiling (Invitrogen). Between the two screens, 53 different kinases were tested, representing a broad proportion of the human kinome. MP470 was screened at a concentration of 1 μM against both wildtype and mutant kinases.

LNCaP prostate cells = test: MTT assay; type: cell-based; details: Homo sapiens, read-out: IC50 (cell survival reduced to 50% of vehicle-treated controls), FIG. 30
Protocol: An MTT assay was performed to determine the number of viable cells in each well for each concentration of compound, and also for a set of vehicle controls (DMSO).

[5] = test system: LNCaP prostate carcinoma cells; test: Apoptosis assays (morphology, PARP cleavage immunoblot); type: cell-based; details: 48 hours
Protocol: Induction of apoptosis by MP-470 (Compound III-1-3) was further evaluated in LNCaP prostate carcinoma cells using three different assays. First, cells were treated with MP-470 at a variety of concentrations, with or without addition of Tarceva® (erlotinib) for 48 hours. Cells were then examined for the morphological characteristics of apoptosis (membrane blebbing, nuclear fragmentation, etc.) and scored according to a binary scale (apoptotic versus non-apoptotic).
As a more quantifiable means of determining apoptosis induction, cells were also lysed and total protein was used in an immunoblot assay for poly-[ADP ribose] polymerase (PARP) cleavage, a hallmark of apoptosis.

[6] = test system: general tyrosine phosphorylation in NIH 3T3 cells; test: Immunoblot for phosphotyrosine; type: cell-based
Protocol: MP-470 (Compound III-1-3) has inhibitory effects on a number of receptor tyrosine kinases. In order to evaluate these effects at the cellular level, immunoblot analysis was performed on lysates from cells treated with MP470, with or without the addition of the EGFR inhibitor Tarceva®. Lysates were assayed for general tyrosine kinase activity, as well as the specific phosphorylation of c-Met and Akt. Briefly, NIH 3T3 cells were pretreated with drugs as indicated for 4 hours, then treated with pervanadate for a further 30 minutes. Immunoblot detection was carried out with antibodies for phosphotyrosine, phospho-Met and phospho-Akt (S473), as well as total c-Met and Akt. Beta-actin was used as a loading control.

[7] = test system: Akt phosphorylation in LNCaP prostate carcinoma cells; test: Immunoblot for phospho-Akt (S473); type: cell-based; details: 48 hours
Protocol: LNCaP prostate carcinoma cells were treated with MP-470, in combinations with Tarceva® and Gleevec®, for 48 hours. Following incubation, cells were lysed and total protein subjected to immunoblot analysis for total Akt and phospho-Akt (S473).

LNCaP tumors = test: Xenograft study; type: in vivo, mice; details: MP-470/Tarceva® in combination, 18 days treatment, FIG. 35
Protocol: A xenograft study was carried out in order to evaluate the combined effects of MP-470 (Compound III-1-3) and Tarceva® in vivo. LNCaP cells were injected into immunocompromised mice and allowed to develop into measurable tumors, at which point treatment was initiated. Mice were allocated to one of four groups and treated with vehicle, MP-470 (referred to in FIG. 35 as HPK56), Tarceva®, or MP-470/Tarceva® in combination, as indicated. […] The results of these studies are shown in graphical form in FIG. 35.

S=C(NCc1ccc2c(c1)OCO2)N1CCN(c2ncnc3c2oc2ccccc23)CC1 [HPK56, 4-Benzo[4,5]furo[3,2-d]pyrimidin-4-yl-piperazine-1-carbothioic acid (benzo[1,3]dioxol-5-ylmethyl)-amide]
IC50 [1]: 2.1 to 3 µM | inhibition of PDGFRa autophosphorylation (in words) (PDGFRa): dose-dependent | inhibition of c-Kit autophosphorylation (in words) (c-Kit): dose-dependent | activity against mutant forms of PDGFR (in words) (mutant forms of PDGFR): low nanomolar | cell death (MTS) ([2]; SF-767, 1 μM MP470 alone): induced cell death | increase of cell death over either agent alone ([2]; SF-767, 1 μM MP470 in combination with 800c Gy IR): more than 2 fold | apoptosis ([3]; MiaPaCa-2, 1 μM): 71% | apoptosis ([3]; MiaPaCa-2, 100 μM): 81.4% | increase in apoptotic cells compared with non-treated cells [4]: > 3 fold | activity against mutant kinase (PDGFRα(D842V)(h)): activity | IC50 (LNCaP prostate cells): ~5 µM | apoptosis induction ([5]; MP-470 alone): dose-dependent increase in apoptosis | apoptosis induction ([5]; MP-470 in the presence of erlotinib): enhanced | general tyrosine phosphorylation [6]: reduced | reduction of phosphorylation of Akt ([7]; MP-470 and Tarceva® in combination): enhanced | phosphorylation of Akt ([7]; agent alone): reduced in a dose-dependent manner | tumor growth (LNCaP tumors): slowed tumor growth to nearly zero

Reference: patent US8552018B2, “Substituted tricyclic compounds as protein kinase inhibitors” (Arizona Board of Regents on behalf of the University of …, priority 2003, dated 2013)
